Reference: patent US11247972B2, “Compositions and methods for treating toxoplasmosis, cryptosporidiosis, and other apicomplexan protozoan related diseases” (University of Washington through its Center for …, priority 2010, dated 2022)
Entries after “also recorded” stand apart in the source; their conditions may differ.

What was measured:
glioma derived (SF539) = assay: Growth inhibition / toxicity in human cell line SF539
PfCDPK4 = PfCDPK4 (Plasmodium falciparum (isolate 3D7), UniProt Q8IBS5); assay: biochemical; conditions: read-out: PfCDPK4 (% inhibition @ 3 uM)
[1] = test system: P. berghei expressing PfCDPK4-2x-myc; design: species or system Plasmodium berghei; conditions: in vivo
PfCDPK1 = PfCDPK1 (Plasmodium falciparum (isolate 3D7), UniProt P62344); assay: biochemical; conditions: read-out: PfCDPK1 (% inhibition @ 3 uM)
P. falciparum = P. falciparum NF54 gametocyte exflagellation with compound in blood; format: cell-based, Plasmodium falciparum; conditions: 1 and 3 μM
P. berghei = test system: P. berghei; design: species or system Plasmodium berghei; conditions: in vivo
C. parvum [2] = assay: Immunosuppressed (SCID-beige) mouse C. parvum model, stool qRT-PCR; format: in vivo, Cryptosporidium parvum; conditions: oral gavage once a day, days 3-7 and 10-14; 29 and 150 50 mg/kg/day, Paromomycin 2 g/kg/day
Description: Shown are mean of the parasite numbers detected in 25 mg of stool from each mouse, by qRT-PCR.

ABL = ABL (Homo sapiens (Human), UniProt P00519)
SRC = SRC (Homo sapiens (Human), UniProt P12931); assay: Tyrosine kinase SRC counter-screen; format: biochemical
[3] = test system: human lymphocyte (CRL8155); assay: Growth inhibition / toxicity in human cell line CRL8155; conditions: CRL8155, 10 μM
[4] = test system: human promyelocytic leukemia (HL-60); assay: Growth inhibition / toxicity in human cell line HL-60; conditions: HL60, 10 μM
CpCDPK1 = CpCDPK1 (Cryptosporidium parvum (strain Iowa II), UniProt A3FQ16); format: biochemical
C. parvum [5] = assay: C. parvum infection of HCT-8 cells (rRNA reverse transcriptase real time PCR); format: cell-based, Cryptosporidium parvum; conditions: inhibitor at time of infection and 1 hour after infection
TgCDPK1 = TgCDPK1 (Toxoplasma gondii, UniProt Q9BJF5); format: biochemical

Nc1ncnc2c1c(-c1ccc3cc(OCc4ccccc4)ccc3c1)nn2CC1CCNCC1 [Compound 34, 3-(6-(benzyloxy)naphthalen-2-yl)-1-(piperidin-4-ylmethyl)-1H-pyrazolo[3,4-d]pyrimidin-4-amine]
Cell Toxicity LD50 SF539 (glioma derived (SF539)): 6 µM | inhibition at 3 µM (PfCDPK4): 97%

CCOc1ccc2cc(-c3nn(CC4CCNCC4)c4ncnc(N)c34)ccc2c1 [Compound 29, 3-(6-ethoxynaphthalen-2-yl)-1-(piperidin-4-ylmethyl)-1H-pyrazolo[3,4-d]pyrimidin-4-amine]
duration of complete suppression of male gametocyte differentiation to exflagellating units [1]: 14 h | exflagellation in blood samples from treated mice [1]: some exflagellation was observed | inhibition at 3 µM (PfCDPK1): 97% | P. falciparum exflagellation (P. falciparum): complete suppression; also recorded: suppressed completely; also recorded: prevented the exflagellation of microgametes | formation of oocysts in A. stephensi (P. berghei): completely blocked | parasites in stool at the end of treatment (C. parvum [2]): not detected | rebound of parasite burden after treatment (C. parvum [2]): slowly

Nc1ncnc2c1c(Cc1cccc3ccccc13)nn2CC1CCNCC1 [Compound 5h, 3-(naphthalen-1-ylmethyl)-1-(piperidin-4-ylmethyl)-1H-pyrazolo[3,4-d]pyrimidin-4-amine]
inhibition at 3 µM (PfCDPK4): 95% | inhibition at 3 µM (PfCDPK1): 66% | inhibition of ABL (in words) (ABL): reduced potency | inhibition of SRC (in words) (SRC): reduced potency

CC(C)n1nc(-c2cc3c(Cl)cccc3[nH]2)c2c(N)ncnc21 [Compound 26, 3-(4-chloro-1H-indol-2-yl)-1-isopropyl-1H-pyrazolo[3,4-d]pyrimidin-4-amine]
inhibition at 3 µM (PfCDPK4): 93% | Cell Toxicity CRL8155, % at 10 μM [3]: 38% toxicity at | Cell Toxicity HL60, % at 10 μM [4]: 45% toxicity at

CC(C)(C)n1nc(-c2ccc3ccccc3c2)c2c(N)ncnc21 [Compound 2, 1-tert-butyl-3-(naphthalen-2-yl)-1H-pyrazolo[3,4-d]pyrimidin-4-amine]
inhibition of CpCDPK1 (in words) (CpCDPK1): most potent inhibitor | C. parvum parasite levels / proliferation in HCT-8 cells (C. parvum [5]): most potent effect | inhibition of TgCDPK1 (in words) (TgCDPK1): most potent inhibitor

Cc1cccc2[nH]c(-c3nn(C(C)C)c4ncnc(N)c34)cc12 [Compound 25, 1-isopropyl-3-(4-methyl-1H-indol-2-yl)-1H-pyrazolo[3,4-d]pyrimidin-4-amine]
inhibition at 3 µM (PfCDPK4): 92% | Cell Toxicity CRL8155, % at 10 μM [3]: 38% toxicity at | Cell Toxicity HL60, % at 10 μM [4]: 47% toxicity at
